Laboratory results taken from the CheMixHub viscosity set.

Assay: xn = mol fraction of the nth substance listed

Nc1ccc(S(=O)(=O)O)cc1 + O
101 kPa
Conditions	viscosity [mPa·s]
298.15 K, x1 = 0.0001913	0.8949
298.15 K, x1 = 0.0003038	0.8969
298.15 K, x1 = 0.0004208	0.899
298.15 K, x1 = 0.0005447	0.8999
298.15 K, x1 = 0.0006999	0.9031
308.15 K, x1 = 0.000111	0.7215
308.15 K, x1 = 0.0001913	0.7221
308.15 K, x1 = 0.0003038	0.724
308.15 K, x1 = 0.0003839	0.7252
308.15 K, x1 = 0.0004208	0.7255
308.15 K, x1 = 0.0006999	0.7281
318.15 K, x1 = 0.0002046	0.5999
318.15 K, x1 = 0.0003685	0.601
318.15 K, x1 = 0.0005157	0.6033
318.15 K, x1 = 0.0006087	0.6041
318.15 K, x1 = 0.0006767	0.6049
318.15 K, x1 = 0.0007735	0.6055

NC(N)=O + CC(C)O
viscosity [mPa·s], 101 kPa
Conditions	293.15 K	298.15 K	303.15 K	308.15 K	313.15 K	318.15 K	323.15 K
x1 = 0.02132	2.552	2.196	1.899	1.65	1.44	1.262	1.111
x1 = 0.02695	2.58	2.22	1.92	1.669	1.457	1.277	1.124
x1 = 0.03401	2.6	2.243	1.944	1.693	1.481	1.301	1.147

OCCOCCOCCO + COCCO
viscosity [mPa·s], 101 kPa
Conditions	293.15 K	298.15 K	303.15 K
x2 = 0.0555	35.94	30.26	26.08
x2 = 0.1005	32.08	27.25	23.69
x2 = 0.1526	27.98	24.06	21.13
x2 = 0.201	24.53	21.36	18.93
x2 = 0.2544	21.12	18.65	16.69
x2 = 0.3016	18.45	16.49	14.87
x2 = 0.3421	16.37	14.79	13.44
x2 = 0.4006	13.74	12.58	11.54
x2 = 0.4493	11.83	10.95	10.13
x2 = 0.4936	10.3	9.622	8.98
x2 = 0.5499	8.592	8.124	7.664
x2 = 0.6007	7.271	6.95	6.621
x2 = 0.6501	6.157	5.943	5.714
x2 = 0.7042	5.105	4.973	4.825
x2 = 0.7531	4.289	4.207	4.115
x2 = 0.7931	3.714	3.65	3.584
x2 = 0.8455	3.061	2.991	2.954
x2 = 0.9009	2.487	2.385	2.346
x2 = 0.95	2.069	1.924	1.856

Cc1ccccc1C + CCCO
viscosity [mPa·s], 100 kPa
Conditions	298.15 K	308.15 K
x2 = 0.063	0.7471	0.6664
x2 = 0.123	0.7703	0.6751
x2 = 0.2215	0.784	0.6782
x2 = 0.3496	0.8508	0.7537
x2 = 0.4648	0.9239	0.806
x2 = 0.5689	1.017	0.8647
x2 = 0.6634	1.124	0.9367
x2 = 0.7497	1.264	1.029
x2 = 0.8287	1.454	1.155
x2 = 0.9014	1.626	1.275
x2 = 0.9684	1.836	1.49
